# Values quoted from earlier work in patent publication US5198463A, “Oxytocin antagonists” (Merck & Co., Inc., priority 1992, dated 1993).
# Tested on: Chinese cabbage seedlings
# Settings: reported by T. Sassa et al.
structure (smiles),measurement,value
"COc1c(C(O)CC(C)C)ccc2c1C(=O)OCc1cc(C)cc(O)c1O2 (stereo not shown) [Compound IA, penicillide]",growth of Chinese cabbage seedlings,markedly inhibits the growth
